Reference: patent publication US20080064871A1, “Production Method of Nitrogen-Containing Fused Ring Compounds” (Japan Tobacco Inc., priority 2006, published 2008)

Target: T1, human URAT1 (Homo sapiens, UniProt Q96S37)
T1 construct: Human URAT1 full length cDNA was subcloned to expression vector pcDNA3.1; expressed in transfected cells; host or cells: HEK293 cells (pcDNA3.1, geneticin-selected)
T1 sequence (Q96S37 1-553): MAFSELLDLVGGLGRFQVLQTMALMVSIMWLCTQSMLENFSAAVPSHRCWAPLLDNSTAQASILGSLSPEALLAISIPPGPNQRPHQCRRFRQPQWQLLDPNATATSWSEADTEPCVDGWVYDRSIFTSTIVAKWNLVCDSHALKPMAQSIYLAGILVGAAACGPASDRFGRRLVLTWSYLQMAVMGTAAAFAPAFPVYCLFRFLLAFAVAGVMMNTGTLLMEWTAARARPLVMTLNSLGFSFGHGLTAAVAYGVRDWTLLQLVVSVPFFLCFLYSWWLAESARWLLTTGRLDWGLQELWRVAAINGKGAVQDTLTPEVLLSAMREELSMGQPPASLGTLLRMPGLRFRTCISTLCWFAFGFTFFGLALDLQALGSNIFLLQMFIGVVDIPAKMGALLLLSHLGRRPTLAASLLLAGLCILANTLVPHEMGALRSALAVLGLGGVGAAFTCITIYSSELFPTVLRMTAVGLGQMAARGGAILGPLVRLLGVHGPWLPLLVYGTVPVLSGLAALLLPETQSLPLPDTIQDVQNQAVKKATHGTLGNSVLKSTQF
Assay: Uric acid transport inhibitory test using human URAT1-expressing cells
Format: cell-based
Details: human URAT1 expressing HEK293 cells, uptake of 14C-labeled uric acid for 5 min, room temperature; read-out: hURAT1 (IC50, concentration necessary for inhibiting the uric acid transport rate by 50%)
Text: Reference Experimental Example 1 Uric Acid Transport Inhibitory Test Using Human Urat1-Expressing Cells
Human URAT1 full length cDNA was subcloned to expression vector pcDNA3.1 and human URAT1 gene was transfected into human embryonic kidney derived cell line (HEK293 cells) by liposome method using Lipofectamine2000. Simultaneously, HEK293 cells transfected with expression vector pcDNA3.1 alone (hereinafter mock cells) were also produced. HEK293 cells expressing human URAT1 gene or mock cells were selected with geneticin resistance as an index. The functional expression of human URAT1 gene was confirmed by a method similar to the following method, using transport of uric acid labeled with ^14C into the cells as an index.
Human URAT1 expressing HEK293 cells or mock cells were cultured in Dulbecco's modified Eagle's MEM medium (high glucose) containing 10% fetal bovine serum, 0.5 mg/mL geneticin sulfate, 100 units/mL penicillin and 100 μg/mL streptomycin under the conditions of 37° C. and 5% CO2 in an incubator. The cells were plated in a 96 well plate (poly-D-Lysine coated) at 1×10^5 cells/well and the following uric acid transport inhibitory test was performed 24 hr later. This test was performed at room temperature.
After the medium was removed by aspiration from each well, the cells were washed once with Hank's Balanced Salt Solution (HBSS) and preincubated with HBSS ([…]) for 5 min. HBSS was aspirated and an assay buffer (wherein NaCl in the above-mentioned HBSS had been substituted with Na-gluconate) containing various concentrations of the Example compound and a radioactive ligand (uric acid labeled with 14C; final concentration […]) was added to each well at […] and an uptake reaction was carried out for 5 min. After the reaction, the cells were washed twice with ice-cold HBSS ([…]), and Microscin ti TM 20 (PerkinElmer) was added at […]. The cells were lysed by stirring and the radioactivity of each well was measured in a liquid scintillation counter (TOP COUNT, Packard).
The uric acid transport rate (%) of the Example compound at each concentration was calculated relative to the radioactivity (difference in radioactivity between human URAT1 expressing HEK293 cells and mock cells without addition of Example compound (DMSO addition)) showing URAT1 specific uric acid transport as 100%, and the concentration (IC50) of the Example compound necessary for inhibiting the uric acid transport rate by 50% was determined. In Table-Table, “+++” means IC50 value of less than 100 nM, “++” means IC50 value of 100 nM to less than 1000 nM, and “+” means IC50 value of 1000 nM to less than 3000 nM.

SMILES | IC50
Nc1ccc2c(c1)OCCN2C(=O)c1cc(Cl)c(O)c(Cl)c1 [Example 71, (7-amino-2,3-dihydrobenzo[1,4]oxazin-4-yl)-(3,5-dichloro-4-hydroxyphenyl)-methanone] | 1000 to 3000 nM
O=C(c1cc(Cl)c(O)c(Cl)c1)N1CCOc2ccc(CO)cc21 [Example 56, (3,5-dichloro-4-hydroxyphenyl)-(6-hydroxymethyl-2,3-dihydrobenzo[1,4]oxazin-4-yl)-methanone] | 100 to 1000 nM
O=C(c1cc(Br)c(O)c(Br)c1)N1CCOc2ccc([N+](=O)[O-])cc21 [Example 69, (3,5-dibromo-4-hydroxyphenyl)-(6-nitro-2,3-dihydrobenzo[1,4]oxazin-4-yl)-methanone] | < 100 nM
O=C(c1cc(Cl)c(O)c(Cl)c1)N1CCOc2c(O)cccc21 [Example 90, (3,5-dichloro-4-hydroxyphenyl)-(8-hydroxy-2,3-dihydrobenzo[1,4]oxazin-4-yl)-methanone] | 100 to 1000 nM
O=C(c1cc(Cl)c(O)c(Cl)c1)N1CCOc2ccc(S(=O)(=O)N3CCCC3)cc21 [Example 33, (3,5-dichloro-4-hydroxyphenyl)-[6-(pyrrolidine-1-sulfonyl)-2,3-dihydrobenzo[1,4]oxazin-4-yl]-methanone] | 100 to 1000 nM
O=C(c1cc(Cl)c(O)c(Cl)c1O)N1CCOc2ccccc21 [Example 50, (3,5-dichloro-2,4-dihydroxyphenyl)-(2,3-dihydrobenzo[1,4]oxazin-4-yl)-methanone] | 100 to 1000 nM
CCOC(=O)COc1c(Cl)cc(C(=O)N2CCOc3ccccc32)cc1Cl [Example 91, ethyl [2,6-dichloro-4-(2,3-dihydrobenzo[1,4]oxazine-4-carbonyl)phenoxy]acetate] | 1000 to 3000 nM
CC(=O)N1CCN(C(=O)c2cc(Cl)c(O)c(Cl)c2)c2ccccc21 [Example 73, 1-[4-(3,5-dichloro-4-hydroxybenzoyl)-3,4-dihydro-2H-quinoxalin-1-yl]-ethanone] | 100 to 1000 nM
Cc1cccc2c1OCCN2C(=O)c1cc(Cl)c(O)c(Cl)c1 [Example 15, (3,5-dichloro-4-hydroxyphenyl)-(8-methyl-2,3-dihydrobenzo[1,4]oxazin-4-yl)-methanone] | < 100 nM
O=C(c1cc(Br)c(O)c(Br)c1)N1CCOc2ccccc21 [Example 4, (3,5-dibromo-4-hydroxyphenyl)-(2,3-dihydrobenzo[1,4]oxazin-4-yl)-methanone] | < 100 nM
CCN(CC)S(=O)(=O)c1ccc2c(c1)N(C(=O)c1cc(Cl)c(O)c(Cl)c1)CCO2 [Example 21, 4-(3,5-dichloro-4-hydroxybenzoyl)-3,4-dihydro-2H-benzo[1,4]oxazine-6-sulfonic acid diethylamide] | 100 to 1000 nM
O=C(c1cc(Cl)c(O)c(Cl)c1)N1CCNc2ccccc21 [Example 54, (3,5-dichloro-4-hydroxyphenyl)-(3,4-dihydro-2H-quinoxalin-1-yl)-methanone] | 100 to 1000 nM
COc1ccc2c(c1)OCCN2C(=O)c1cc(Cl)c(O)c(Cl)c1 [Example 18, (3,5-dichloro-4-hydroxyphenyl)-(7-methoxy-2,3-dihydrobenzo[1,4]oxazin-4-yl)-methanone] | 100 to 1000 nM
Cc1cc(C(=O)N2CCOc3ccccc32)cc(C)c1O [Example 7, (2,3-dihydrobenzo[1,4]oxazin-4-yl)-(4-hydroxy-3,5-dimethylphenyl)-methanone] | 100 to 1000 nM
COc1c(Cl)cc(C(=O)N2CCOc3ccccc32)cc1Cl [Example 86, (3,5-dichloro-4-methoxyphenyl)-(2,3-dihydrobenzo[1,4]oxazin-4-yl)-methanone] | 1000 to 3000 nM
Cc1ccc2c(c1)OCCN2C(=O)c1cc(Cl)c(O)c(Cl)c1 [Example 13, (3,5-dichloro-4-hydroxyphenyl)-(7-methyl-2,3-dihydrobenzo[1,4]oxazin-4-yl)-methanone] | 100 to 1000 nM

SMILES | IC50
O=C(c1ccc(O)c(Cl)c1)N1CCOc2ccccc21 [Example 1, (3-chloro-4-hydroxyphenyl)-(2,3-dihydrobenzo[1,4]oxazin-4-yl)-methanone] | < 100 nM
O=S(=O)(c1cc(Cl)c(O)c(Cl)c1)N1CCOc2ccccc21 [Example 22, 2,6-dichloro-4-(2,3-dihydrobenzo[1,4]oxazine-4-sulfonyl)phenol] | 1000 to 3000 nM
O=C(c1cc(Cl)c(O)c(Cl)c1)N1CCOc2ccc(O)cc21 [Example 19, (3,5-dichloro-4-hydroxyphenyl)-(6-hydroxy-2,3-dihydrobenzo[1,4]oxazin-4-yl)-methanone] | 100 to 1000 nM
O=C(c1cc(Cl)c(O)c(Cl)c1)N1CCOc2cc(O)ccc21 [Example 20, (3,5-dichloro-4-hydroxyphenyl)-(7-hydroxy-2,3-dihydrobenzo[1,4]oxazin-4-yl)-methanone] | 100 to 1000 nM
O=C(c1cc(Cl)c(O)c(Cl)c1)N1CCOc2ccc3ccccc3c21 [Example 16, (3,5-dichloro-4-hydroxyphenyl)-(2,3-dihydronaphtho[2,1-b][1,4]oxazin-1-yl)-methanone] | < 100 nM
Cc1ccc2c(c1)N(C(=O)c1cc(Cl)c(O)c(Cl)c1)CCO2 [Example 12, (3,5-dichloro-4-hydroxyphenyl)-(6-methyl-2,3-dihydrobenzo[1,4]oxazin-4-yl)-methanone] | < 100 nM
Nc1ccc2c(c1)N(C(=O)c1cc(Cl)c(O)c(Cl)c1)CCO2 [Example 68, (6-amino-2,3-dihydrobenzo[1,4]oxazin-4-yl)-(3,5-dichloro-4-hydroxyphenyl)-methanone] | 100 to 1000 nM
CC(=O)Oc1c(Cl)cc(C(=O)N2CCOc3ccccc32)cc1Cl [Example 87, 2,6-dichloro-4-(2,3-dihydrobenzo[1,4]oxazine-4-carbonyl)-phenyl acetate] | 100 to 1000 nM
O=C(c1cc(Cl)c(O)c(Cl)c1)N1CCCOc2ccccc21 [Example 95, (3,5-dichloro-4-hydroxyphenyl)-(7,8-dihydro-6H-5-oxa-9-azabenzocyclohepten-9-yl)-methanone] | 100 to 1000 nM
CCS(=O)(=O)c1ccc2c(c1)N(C(=O)c1cc(Cl)c(O)c(Cl)c1)CCO2 [Example 84, (3,5-dichloro-4-hydroxyphenyl)-(6-ethanesulfonyl-2,3-dihydrobenzo[1,4]oxazin-4-yl)-methanone] | 1000 to 3000 nM
O=C(c1cc(Cl)c(O)c(Cl)c1)N1CCOc2ccccc21 [Example 3, (3,5-dichloro-4-hydroxyphenyl)-(2,3-dihydrobenzo[1,4]oxazin-4-yl)-methanone] | < 100 nM
O=C(c1cc(Br)c(O)c(Br)c1)N1CCOc2ccc3ccccc3c21 [Example 80, (3,5-dibromo-4-hydroxyphenyl)-(2,3-dihydronaphtho[2,1-b][1,4]oxazin-1-yl)-methanone] | < 100 nM
O=C(c1cnc(O)c(Cl)c1)N1CCOc2ccccc21 [Example 29, (5-chloro-6-hydroxypyridin-3-yl)-(2,3-dihydrobenzo[1,4]oxazin-4-yl)-methanone] | 1000 to 3000 nM
O=C(c1cc([N+](=O)[O-])c(O)c([N+](=O)[O-])c1)N1CCOc2ccccc21 [Example 30, (2,3-dihydrobenzo[1,4]oxazin-4-yl)-(4-hydroxy-3,5-dinitrophenyl)-methanone] | 100 to 1000 nM
COC(=O)c1cccc2c1OCCN2C(=O)c1cc(Cl)c(O)c(Cl)c1 [Example 61, methyl 4-(3,5-dichloro-4-hydroxybenzoyl)-3,4-dihydro-2H-benzo[1,4]oxazine-8-carboxylate] | 1000 to 3000 nM
Cc1cccc2c1N(C(=O)c1cc(Cl)c(O)c(Cl)c1)CCO2 [Example 14, (3,5-dichloro-4-hydroxyphenyl)-(5-methyl-2,3-dihydrobenzo[1,4]oxazin-4-yl)-methanone] | < 100 nM
